From patent US20260022142A1, “MACROCYCLIC IMMUNOMODULATORS” (Bristol-Myers Squibb Company, priority 2022, published 2026)
Numbered stars: 1 amine (or outer) side, 2 acyl side, 3 side chain; on linkers, the order of the positions; unused ones are H or OH. Bridge positions count the residues as written; N and C are the ends. Square brackets hold non-standard residues; d marks the D form. Peptide text beside a SMILES is read from it. * marks the point of attachment. ξ: configuration not given here. Phe(3-CF3) = N[C@@H](Cc1cccc(C(F)(F)F)c1)C(=O)O; Ala(morpholin-4-yl) = N[C@@H](CN1CCOCC1)C(=O)O; Phe(4-COOH) = N[C@@H](Cc1ccc(C(=O)O)cc1)C(=O)O; Bip = N[C@@H](Cc1ccc(-c2ccccc2)cc1)C(=O)O; NH(CH2)14COOH = O=C(O)CCCCCCCCCCCCCCN*; Phe(3-Me) = Cc1cccc(C[C@H](N)C(=O)O)c1; Phe(4-Me) = Cc1ccc(C[C@H](N)C(=O)O)cc1; γGlu = O=C(O)[C@H](CCC(=O)[*:2])N[*:1]; NH(CH2)12COOH = O=C(O)CCCCCCCCCCCCN*; Val(3-OH) = CC(C)(O)[C@H](N)C(=O)O; 3Pal = N[C@@H](Cc1cccnc1)C(=O)O; 4Pal = N[C@@H](Cc1ccncc1)C(=O)O; Cha = N[C@@H](CC1CCCCC1)C(=O)O; Ile(3ξ) = CCC(C)[C@H](N)C(=O)O; Thr(3ξ) = CC(O)[C@H](N)C(=O)O; dDab = NCC[C@@H](N)C(=O)O; Carboxymethyl = O=C(O)C*; Orn = NCCC[C@H](N)C(=O)O; Aun = NCCCCCCCCCCC(=O)O; Dab = NCC[C@H](N)C(=O)O; Nva = CCC[C@H](N)C(=O)O; Abu = CC[C@H](N)C(=O)O; Dap = NC[C@H](N)C(=O)O; AEEA = NCCOCCOCC(=O)O

What follows are molecules tested against T1, PD-1/PD-L1 interaction (PE-labeled human PD-L1-Ig binding to Jurkat cell line over-expressing human PD-1) (Homo sapiens, UniProt Q15116) (assay: Jurkat-PD-1 Cell Binding High-Content Screening Assay (CBA)). Conditions: Jurkat cell line over-expressing human PD-1; PE-labeled PD-L1-Ig 20 nM final; read-out: Jurkat hPD1-PDL1 IC50.
T1 construct: expressed in transfected cells; host or cells: Jurkat
T1 sequence (Q15116 25-288): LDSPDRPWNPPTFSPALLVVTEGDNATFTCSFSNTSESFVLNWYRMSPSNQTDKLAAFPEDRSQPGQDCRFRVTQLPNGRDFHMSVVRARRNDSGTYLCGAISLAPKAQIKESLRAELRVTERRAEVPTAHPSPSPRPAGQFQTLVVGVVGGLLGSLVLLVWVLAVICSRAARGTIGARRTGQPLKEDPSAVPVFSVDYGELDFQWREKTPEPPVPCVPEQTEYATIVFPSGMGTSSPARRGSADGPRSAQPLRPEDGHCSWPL
Format: cell-based
Summary of the method: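 First, compound is added to PD-1-expressing Jurkat cells in serum-containing DMEM and left 2 h at 37° C. Next, PE-conjugated PD-L1-Ig is introduced at 20 nM final concentration for 1 hour. Finally, cells are fixed in 4% paraformaldehyde with Hoechst 33342, washed and imaged.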

SMILES | IC50
CC(C)C[C@H]1NC(=O)[C@H](CCCN)NC(=O)[C@H](Cc2ccc(C(=O)O)cc2)NC(=O)[C@H](Cc2ccc(-c3ccccc3)cc2)NC(=O)[C@H](Cc2ccc(C(=O)O)cc2)NC(=O)[C@H](Cc2cccc(C(F)(F)F)c2)NC(=O)[C@H](CC(=O)O)NC(=O)[C@H](Cc2ccc(OCC(=O)O)cc2)NC(=O)[C@H](CC2CCCCC2)NC(=O)CSC[C@@H](C(=O)N[C@H](CCN)C(=O)NCCOCCOCC(=O)NCCOCCOCC(=O)NCCCCCCCCCCCCC(=O)O)NC(=O)[C@H](CO)NC(=O)[C@H](C(C)(C)O)NC(=O)[C@H](CC2CCCCC2)NC(=O)[C@H](CCN)NC1=O [Compound 3831] ({CH2CO}-[Cha]Y(Carboxymethyl)D[Phe(3-CF3)][Phe(4-COOH)][Bip][Phe(4-COOH)][Orn][dL][Dab][Cha][Val(3-OH)]SC[dDab][AEEA][AEEA]-{NH(CH2)12COOH}; thioether N-14) | 22.5 nM
COC[C@@H]1NC(=O)CSC[C@@H](C(=O)N[C@@H](CCN)C(=O)NCCOCCOCC(=O)N[C@@H](CCC(=O)NCCOCCOCC(=O)NCCCCCCCCCCCCC(=O)O)C(=O)O)NC(=O)[C@H](CO)NC(=O)[C@H](C(C)(C)O)NC(=O)[C@H](CC2CCCCC2)NC(=O)[C@H](CCN)NC(=O)[C@@H](CC(C)C)NC(=O)[C@H](CCCN)NC(=O)[C@H](Cc2ccc(C(=O)O)cc2)NC(=O)[C@H](Cc2ccc(-c3ccccc3)cc2)NC(=O)[C@H](Cc2ccc(C(=O)O)cc2)NC(=O)[C@H](Cc2cccc(C(F)(F)F)c2)NC(=O)[C@H](CC(=O)O)NC(=O)[C@H](Cc2ccc(OCC(=O)O)cc2)NC1=O [Compound 2938] ({CH2CO}-S(Me)Y(Carboxymethyl)D[Phe(3-CF3)][Phe(4-COOH)][Bip][Phe(4-COOH)][Orn][dL][Dab][Cha][Val(3-OH)]SC[Dab][AEEA][γGlu][AEEA]-{NH(CH2)12COOH}; thioether N-14) | 26.8 nM
CC(C)C[C@H]1NC(=O)[C@H](CCCN)NC(=O)[C@H](Cc2ccc(O)cc2)NC(=O)[C@H](Cc2ccc(-c3ccccc3)cc2)NC(=O)[C@H](Cc2ccc(OCC(=O)O)cc2)NC(=O)[C@H](Cc2c[nH]c3ccccc23)NC(=O)[C@H](CC(=O)O)NC(=O)[C@H](Cc2ccc(OCC(=O)O)cc2)NC(=O)[C@H](CN)NC(=O)CSC[C@@H](C(=O)N[C@@H](CCN)C(=O)NCCOCCOCC(=O)NCCCCCCCCCCC(=O)O)NC(=O)[C@H](CCCN)NC(=O)[C@H](C(C)C)NC(=O)[C@H](CC2CCCCC2)NC(=O)[C@H](CCN)NC1=O [Compound 1306] ({CH2CO}-[Dap]Y(Carboxymethyl)DWY(Carboxymethyl)[Bip]Y[Orn][dL][Dab][Cha]V[Orn]C[Dab][AEEA][Aun]-OH; thioether N-14) | 48.9 nM
CC(C)C[C@H]1NC(=O)[C@H](CCCN)NC(=O)[C@H](Cc2ccc(C(=O)O)cc2)NC(=O)[C@H](Cc2ccc(-c3ccccc3)cc2)NC(=O)[C@H](Cc2ccc(C(=O)O)cc2)NC(=O)[C@H](Cc2cccc(C(F)(F)F)c2)NC(=O)[C@H](CC(=O)O)NC(=O)[C@H](Cc2ccc(OCC(=O)O)cc2)NC(=O)[C@H](CN2CCOCC2)NC(=O)CSC[C@@H](C(=O)N[C@@H](CCN)C(=O)NCCOCCOCC(=O)NCCOCCOCC(=O)NCCCCCCCCCCCCC(=O)O)NC(=O)[C@H](CC(=O)O)NC(=O)[C@H](C(C)(C)O)NC(=O)[C@H](CC2CCCCC2)NC(=O)[C@H](CCN)NC1=O [Compound 2920] ({CH2CO}-[Ala(morpholin-4-yl)]Y(Carboxymethyl)D[Phe(3-CF3)][Phe(4-COOH)][Bip][Phe(4-COOH)][Orn][dL][Dab][Cha][Val(3-OH)]DC[Dab][AEEA][AEEA]-{NH(CH2)12COOH}; thioether N-14) | 25.7 nM
CCC(C)[C@@H]1NC(=O)[C@H](Cc2ccc(-c3ccccc3)cc2)NC(=O)[C@H](C(C)C)NC(=O)[C@H](Cc2c[nH]c3ccccc23)NC(=O)[C@H](CC(=O)O)NC(=O)[C@H](Cc2ccc(C(=O)O)cc2)NC(=O)[C@H](Cc2ccncc2)NC(=O)CSC[C@@H](C(=O)N[C@H](CC(N)=O)C(=O)NCCOCCOCC(=O)N[C@@H](CCCN)C(=O)NCCCCCCCCCCC(=O)O)NC(=O)[C@H](CO)NC(=O)[C@H](C(C)C)NC(=O)[C@H](CC2CCCCC2)NC(=O)[C@H](CCN)NC(=O)[C@@H](CC(C)C)NC(=O)[C@H](CCCN)NC1=O (stereo partly drawn) [Compound 3058] ({CH2CO}-[4Pal][Phe(4-COOH)]DWV[Bip][Ile(3ξ)][Orn][dL][Dab][Cha]VSC[dN][AEEA][Orn][Aun]-OH; thioether N-14) | 13 nM
CCC[C@@H]1NC(=O)CSC[C@@H](C(=O)N[C@@H](CCN)C(=O)NCCOCCOCC(=O)NCCOCCOCC(=O)NCCCCCCCCCCCCCCC(=O)O)NC(=O)[C@H](CO)NC(=O)[C@H](C(C)(C)O)NC(=O)[C@H](CC2CCCCC2)NC(=O)[C@H](CCN)NC(=O)[C@@H](CC(C)C)NC(=O)[C@H](CCCN)NC(=O)[C@H](Cc2ccc(C(=O)O)cc2)NC(=O)[C@H](Cc2ccc(-c3ccccc3)cc2)NC(=O)[C@H](Cc2ccc(C(=O)O)cc2)NC(=O)[C@H](Cc2cccc(C)c2)NC(=O)[C@H](CC(=O)O)NC(=O)[C@H](Cc2ccc(OCC(=O)O)cc2)NC1=O [Compound 2884] ({CH2CO}-[Nva]Y(Carboxymethyl)D[Phe(3-Me)][Phe(4-COOH)][Bip][Phe(4-COOH)][Orn][dL][Dab][Cha][Val(3-OH)]SC[Dab][AEEA][AEEA]-{NH(CH2)14COOH}; thioether N-14) | 133 nM
CCC[C@@H]1NC(=O)CSC[C@@H](C(=O)N[C@@H](CCN)C(=O)NCCOCCOCC(=O)NCCCCCCCCCCC(=O)O)NC(=O)[C@H](CO)NC(=O)[C@H](C(C)(C)O)NC(=O)[C@H](CC2CCCCC2)NC(=O)[C@H](CCN)NC(=O)[C@@H](CC(C)C)NC(=O)[C@H](CCCN)NC(=O)[C@H](Cc2ccc(OCC(=O)O)cc2)NC(=O)[C@H](Cc2ccc(-c3ccccc3)cc2)NC(=O)[C@H](Cc2ccc(OCC(=O)O)cc2)NC(=O)[C@H](Cc2cccc(C)c2)NC(=O)[C@H](CC(=O)O)NC(=O)[C@H](Cc2ccc(OCC(=O)O)cc2)NC1=O [Compound 2246] ({CH2CO}-[Nva]Y(Carboxymethyl)D[Phe(3-Me)]Y(Carboxymethyl)[Bip]Y(Carboxymethyl)[Orn][dL][Dab][Cha][Val(3-OH)]SC[Dab][AEEA][Aun]-OH; thioether N-14) | 0.6 nM

Further lines, results first:

IC50 | SMILES
19.6 nM | Cc1ccc(C[C@@H]2NC(=O)[C@H](Cc3cccc(C)c3)NC(=O)[C@H](CC(=O)O)NC(=O)[C@H](Cc3ccc(OCC(=O)O)cc3)NC(=O)[C@H](Cc3ccncc3)NC(=O)CSC[C@@H](C(=O)N[C@@H](CCN)C(=O)NCCCCCCCCCCC(=O)O)NC(=O)[C@H](CO)NC(=O)[C@H](C(C)(C)O)NC(=O)[C@H](CC3CCCCC3)NC(=O)[C@H](CCN)NC(=O)[C@@H](CC(C)C)NC(=O)[C@H](CCCN)NC(=O)[C@H](Cc3ccc(OCC(=O)O)cc3)NC(=O)[C@H](Cc3ccc(-c4ccccc4)cc3)NC2=O)cc1 [Compound 2190] ({CH2CO}-[4Pal]Y(Carboxymethyl)D[Phe(3-Me)][Phe(4-Me)][Bip]Y(Carboxymethyl)[Orn][dL][Dab][Cha][Val(3-OH)]SC[Dab][Aun]-OH; thioether N-14)
54.9 nM | Cc1cccc(C[C@@H]2NC(=O)[C@H](CC(=O)O)NC(=O)[C@H](Cc3ccc(OCC(=O)O)cc3)NC(=O)[C@H](Cc3ccc(OCC(=O)O)cc3)NC(=O)CSC[C@@H](C(=O)N[C@@H](CCCCN)C(=O)NCCCCCCCCCCC(=O)O)NC(=O)[C@H](CO)NC(=O)[C@H](C(C)C)NC(=O)[C@H](CC(C)C)NC(=O)[C@H](CCN)NC(=O)[C@@H](CC(C)C)NC(=O)[C@H](CCCN)NC(=O)[C@H](C(C)C)NC(=O)[C@H](Cc3ccc(-c4ccccc4)cc3)NC(=O)[C@@H](CC(C)C)NC2=O)c1 [Compound 1142] ({CH2CO}-Y(Carboxymethyl)Y(Carboxymethyl)D[Phe(3-Me)][dL][Bip]V[Orn][dL][Dab]LVSCK[Aun]-OH; thioether N-14)
2.7 nM | CC[C@@H]1NC(=O)CSC[C@@H](C(=O)N[C@@H](CCN)C(=O)NCCOCCOCC(=O)NCCCCCCCCCCC(=O)O)NC(=O)[C@H](CO)NC(=O)[C@H](C(C)(C)O)NC(=O)[C@H](CC2CCCCC2)NC(=O)[C@H](CCN)NC(=O)[C@@H](CC(C)C)NC(=O)[C@H](CCCN)NC(=O)[C@H](Cc2ccc(OCC(=O)O)cc2)NC(=O)[C@H](Cc2ccc(-c3ccccc3)cc2)NC(=O)[C@H](Cc2ccc(OCC(=O)O)cc2)NC(=O)[C@H](Cc2cccc(C)c2)NC(=O)[C@H](CC(=O)O)NC(=O)[C@H](Cc2ccc(OCC(=O)O)cc2)NC1=O [Compound 2879] ({CH2CO}-[Abu]Y(Carboxymethyl)D[Phe(3-Me)]Y(Carboxymethyl)[Bip]Y(Carboxymethyl)[Orn][dL][Dab][Cha][Val(3-OH)]SC[Dab][AEEA][Aun]-OH; thioether N-14)
10.5 nM | Cc1cccc(C[C@@H]2NC(=O)[C@H](CC(=O)O)NC(=O)[C@H](Cc3ccc(OCC(=O)O)cc3)NC(=O)[C@H](CC(N)=O)NC(=O)CSC[C@@H](C(=O)N[C@@H](CCN)C(=O)NCCCCCCCCCCC(=O)O)NC(=O)[C@H](CO)NC(=O)[C@H](C(C)O)NC(=O)[C@H](CC3CCCCC3)NC(=O)[C@H](CCN)NC(=O)[C@@H](CC(C)C)NC(=O)[C@H](CCCN)NC(=O)[C@H](Cc3ccc(OCC(=O)O)cc3)NC(=O)[C@H](Cc3ccc(-c4ccccc4)cc3)NC(=O)[C@H](Cc3ccc(OCC(=O)O)cc3)NC2=O)c1 (stereo partly drawn) [Compound 3639] ({CH2CO}-NY(Carboxymethyl)D[Phe(3-Me)]Y(Carboxymethyl)[Bip]Y(Carboxymethyl)[Orn][dL][Dab][Cha][Thr(3ξ)]SC[Dab][Aun]-OH; thioether N-14)
62.4 nM | Cc1cccc(C[C@@H]2NC(=O)[C@H](CC(=O)O)NC(=O)[C@H](Cc3ccc(OCC(=O)O)cc3)NC(=O)[C@H](CN)NC(=O)CSC[C@@H](C(=O)N[C@@H](CCN)C(=O)NCCCCCCCCCCC(=O)O)NC(=O)[C@H](Cc3cccnc3)NC(=O)[C@H](C(C)C)NC(=O)[C@H](CC(C)C)NC(=O)[C@H](CCN)NC(=O)[C@@H](CC(C)C)NC(=O)[C@H](CCCN)NC(=O)[C@H](Cc3ccc(O)cc3)NC(=O)[C@H](Cc3ccc(-c4ccccc4)cc3)NC(=O)[C@H](C(C)C)NC2=O)c1 [Compound 2765] ({CH2CO}-[Dap]Y(Carboxymethyl)D[Phe(3-Me)]V[Bip]Y[Orn][dL][Dab]LV[3Pal]C[Dab][Aun]-OH; thioether N-14)
